Experimental data from patent publication US7355055B2, “Compounds for treatment of lipase-mediated diseases” (Reliance Life Sciences Pvt. Ltd., priority 2005, dated 2008).
Counter-ions that a name gives are not always drawn.

What was measured:
Pancreatic Lipase = target: T1, Pancreatic Lipase (Sus scrofa, UniProt P00591); test: Pancreatic lipase inhibition assay (p-nitro phenol palmitate substrate, 96-well); assay type: biochemical; settings: for inhibition at 100 µM / inhibition at 200 µM: pancreatic lipase, 37° C., OD 405 nm; for inhibition at 100 µM: compound 100 μM; for inhibition at 200 µM: compound 200 μM; for IC50: dose range 6.25 μM-200 μM, interpolated by linear regression
T1 construct: purchased Sigma L-3126
T1 sequence (P00591 1-450): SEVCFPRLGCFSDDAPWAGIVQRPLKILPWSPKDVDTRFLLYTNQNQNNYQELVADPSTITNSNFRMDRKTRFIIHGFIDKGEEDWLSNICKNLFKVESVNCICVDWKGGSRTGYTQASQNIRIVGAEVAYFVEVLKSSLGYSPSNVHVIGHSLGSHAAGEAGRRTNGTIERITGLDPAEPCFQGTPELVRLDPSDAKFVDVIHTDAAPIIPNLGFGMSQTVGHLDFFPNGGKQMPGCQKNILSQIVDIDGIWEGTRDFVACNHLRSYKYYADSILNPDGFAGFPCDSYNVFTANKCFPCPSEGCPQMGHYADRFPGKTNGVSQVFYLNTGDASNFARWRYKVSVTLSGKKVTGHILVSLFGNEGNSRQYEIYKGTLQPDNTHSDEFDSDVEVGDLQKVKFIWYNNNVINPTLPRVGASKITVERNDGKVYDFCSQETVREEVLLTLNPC
Method: (§1) Preparation of test samples: Structures #2-#19 were dissolved in 1 mL DMSO to obtain a 10 mM stock solution, and were vortexed to dissolution and stored at 4° C. The various concentration of working samples were prepared in 0.2 M phosphate buffer, pH-8.0. This sample was used as test sample for all further assays.
Lipase assay: Lipase assay was performed by method described by Winkler and Stuckmann, 1979, with modification. (Winkler, U. K. & Stuckmann, M. Glycogen, hyaluronate, and some other polysaccharides greatly enhance the formation of exolipase by Serratia marcescens. J. Bacteriol. 138: 663-670 (1979)) Assay was designed, using a 96-well format. The substrate used in this assay was p-nitro phenol palmitate (Sigma, Cat No-N-2752). 4.5 mg of p-nitro phenol palmitate was dissolved in 200 μl of N,N-dimethyl formamide (Sigma, Cat No, D-4551) and volume made up to 10 ml with 0.1 M pH 8.0 phosphate buffer. Pancreatic Lipase (Sigma, Cat No. L-3126) sample was prepared by dissolving the enzyme in 0.1M phosphate buffer at a concentration of 5 mg/ml. The reaction mixture consisted of 150 μl substrate solution; 40 μl phosphate buffer (pH 8.0, 0.2 M) and 10 μl lipase solution. The reaction mixture was incubated at 37° C. and optical density was measured at 405 nm after incubation. Enzyme activity was presented in the form of international unit (IU).
Lipase activity: One enzyme unit of lipase is defined as that quantity releasing 1 nm of free phenol from the substrate (p-nitro phenol palmitate) per min per ml under the standard assay condition (Winkler and Stuckmann, 1979; Yadav R P, Saxena R K, Gupta R. Davidson W S., Purification and characterization of a region-specific lipase from Aspergillus terreus. Biotechnol. Appl. Biochem. (1998) 28, (243-249)). It is derived from standard graph of p-nitro phenol (Sigma, 104-8).
(§2) Lipase inhibition assay: Enzyme inhibition assay was performed in a dose dependent manner. The concentration of the synthetic analogs checked were 100 μM & 200 μM. The assay was similar to assay described above except 40 μl of test sample was used instead of phosphate buffer in control. Optical density was measured at 0 hr and following incubation at 37° C.
Enzyme Inhibition: Enzyme inhibition was presented in the term of relative activity and percentage inhibition simply on the basis of change in international unit (IU).
as §1, with “Synthetic analogues” for “Structures #2-#19”, “ml” for “mL”, “solution. The samples” for “solution, and”, “O.2” for “0.2”
as §2, with “6.25 μM-200” for “100 μM & 200”, “C. The enzyme activity was measured in terms of international unit (IU).” for “C.”
Lipase activity: One enzyme unit of lipase is defined as that quantity releasing 1 nm of free phenol from the substrate (p-nitro phenol palmitate)/min per ml under standard assay conditions. It is derived from standard graph of p-nitro phenol (Sigma, 104-8)
Percent Inhibition: Enzyme inhibition was presented in the term of % inhibition simply on the basis of change in international unit (IU).
The value of IC50 was derived from linear regression. The value derived is based on interpolated data.

Row | Structure (SMILES) | inhibition at 100 µM (Pancreatic Lipase) [%] | inhibition at 200 µM (Pancreatic Lipase) [%] | IC50 (Pancreatic Lipase) [µM] | melting point [°C]
1 | CCCCCCCCCCCC1=C(O)C(=O)C=C(O)C1=O [Structure #20, 2,5-Dihydroxy-3-undecyl-p-benzoquinone, reference compound] | 67.9 | 69.5 | – | –
2 | CCCCCCCCCCCC1=C(OC(=O)c2ccccc2I)C(=O)C=C(OC(=O)c2ccccc2I)C1=O [Structure #19, 2,5-bis-(2-iodophenylcarbonyloxy)-3-undecyl-1,4-benzoquinone] | 29.2 | 100 | 129 | –
3 | CCCCCCCCCCCC1=C(OC(=O)c2cccc(OC)c2)C(=O)C=C(OC(=O)c2cccc(OC)c2)C1=O (as salt: Na) [Structure #17, 2,5-bis-(3-methoxyphenylcarbonyloxy)-3-undecyl-1,4-benzoquinone] | – | – | – | 77.1 to 78.6
4 | CCCCCCCCCCCC1=C(OC(=O)c2cccc(Cl)c2)C(=O)C=C(OC(=O)c2cccc(Cl)c2)C1=O (as salt: Na) [Structure #7, 2,5-bis-(3-chlorophenylcarbonyloxy)-3-undecyl-1,4-benzoquinone] | – | – | – | 102.8 to 104.6
5 | CCCCCCCCCCCC1=C(OC(=O)c2ccccc2[N+](=O)[O-])C(=O)C=C(OC(=O)c2ccccc2[N+](=O)[O-])C1=O [Structure #14, 2,5-bis-(2-nitrophenylcarbonyloxy)-3-undecyl-1,4-benzoquinone] | 65.9 | 61.3 | 45.3 | –
6 | CCCCCCCCCCCC1=C(OC(=O)c2ccc(Cl)cc2)C(=O)C=C(OC(=O)c2ccc(Cl)cc2)C1=O [Structure #9, 2,5-bis-(4-chlorophenylcarbonyloxy)-3-undecyl-1,4-benzoquinone] | 98.4 | 100 | 22.8 | –
7 | CCCCCCCCCCCC1=C(OC(=O)c2ccc(C(C)(C)C)cc2)C(=O)C=C(OC(=O)c2ccc(C(C)(C)C)cc2)C1=O [Structure #3, 2,5-bis-(4-tert-butylphenylcarbonyloxy)-3-undecyl-1,4-benzoquinone] | 99.5 | 99.2 | < 6.25 | –
8 | CCCCCCCCCCCC1=C(OC(=O)c2ccc(F)cc2)C(=O)C=C(OC(=O)c2ccc(F)cc2)C1=O [Structure #16, 2,5-bis-(4-fluorophenylcarbonyloxy)-3-undecyl-1,4-benzoquinone] | 89.5 | 100 | 72.8 | –
9 | CCCCCCCCCCCC1=C(OC(=O)c2ccc(Cl)cc2)C(=O)C=C(OC(=O)c2ccc(Cl)cc2)C1=O (as salt: Na) [Structure #9, 2,5-bis-(4-chlorophenylcarbonyloxy)-3-undecyl-1,4-benzoquinone] | – | – | – | 110.2 to 112
10 | CCCCCCCCCCCC1=C(OC(=O)c2ccc(C)cc2)C(=O)C=C(OC(=O)c2ccc(C)cc2)C1=O [Structure #12, 2,5-bis-(4-methylphenylcarbonyloxy)-3-undecyl-1,4-benzoquinone] | 88.5 | 99.1 | 41.3 | –
11 | CCCCCCCCCCCC1=C(OC(=O)c2ccc(C)cc2)C(=O)C=C(OC(=O)c2ccc(C)cc2)C1=O (as salt: Na) [Structure #12, 2,5-bis-(4-methylphenylcarbonyloxy)-3-undecyl-1,4-benzoquinone] | – | – | – | 94.8 to 96
12 | CCCCCCCCCCCC1=C(OC(=O)c2ccc(OC)cc2)C(=O)C=C(OC(=O)c2ccc(OC)cc2)C1=O (as salt: Na) [Structure #18, 2,5-bis-(4-methoxyphenylcarbonyloxy)-3-undecyl-1,4-benzoquinone] | – | – | – | 99.2 to 100.5
13 | CCCCCCCCCCCC1=C(OC(=O)c2cccc(C)c2)C(=O)C=C(OC(=O)c2cccc(C)c2)C1=O [Structure #13, 2,5-bis-(3-methylphenylcarbonyloxy)-3-undecyl-1,4-benzoquinone] | 100 | 100 | 44.7 | –
14 | CCCCCCCCCCCC1=C(OC(=O)c2ccccc2Br)C(=O)C=C(OC(=O)c2ccccc2Br)C1=O [Structure #5, 2,5-bis-(2-bromophenylcarbonyloxy)-3-undecyl-1,4-benzoquinone] | 100 | 100 | 11 | –
15 | CCCCCCCCCCCC1=C(OC(=O)c2ccccc2)C(=O)C=C(OC(=O)c2ccccc2)C1=O (as salt: Na) [Structure #15, 2,5-bis-(phenylcarbonyloxy)-3-undecyl-1,4-benzoquinone] | – | – | – | 98.2 to 99.6
16 | CCCCCCCCCCCC1=C(OC(=O)c2ccc(OC)cc2)C(=O)C=C(OC(=O)c2ccc(OC)cc2)C1=O [Structure #18, 2,5-bis-(4-methoxyphenylcarbonyloxy)-3-undecyl-1,4-benzoquinone] | 55.6 | 94.1 | 94.2 | –
17 | CCCCCCCCCCCC1=C(OC(=O)c2cccc(C)c2)C(=O)C=C(OC(=O)c2cccc(C)c2)C1=O (as salt: Na) [Structure #13, 2,5-bis-(3-methylphenylcarbonyloxy)-3-undecyl-1,4-benzoquinone] | – | – | – | 80.4 to 81.7
18 | CCCCCCCCCCCC1=C(OC(=O)c2cccc(Br)c2)C(=O)C=C(OC(=O)c2cccc(Br)c2)C1=O [Structure #6, 2,5-bis-(3-bromophenylcarbonyloxy)-3-undecyl-1,4-benzoquinone] | 100 | 100 | 13.5 | –
19 | CCCCCCCCCCCC1=C(OC(=O)c2ccc(Br)cc2)C(=O)C=C(OC(=O)c2ccc(Br)cc2)C1=O [Structure #10, 2,5-bis-(4-bromophenylcarbonyloxy)-3-undecyl-1,4-benzoquinone] | 87.5 | 97 | 23.7 | –
20 | CCCCCCCCCCCC1=C(OC(=O)c2ccccc2)C(=O)C=C(OC(=O)c2ccccc2)C1=O [Structure #15, 2,5-bis-(phenylcarbonyloxy)-3-undecyl-1,4-benzoquinone] | 100 | 100 | 55.6 | –
21 | CCCCCCCCCCCC1=C(OC(=O)c2cccc(OC)c2)C(=O)C=C(OC(=O)c2cccc(OC)c2)C1=O [Structure #17, 2,5-bis-(3-methoxyphenylcarbonyloxy)-3-undecyl-1,4-benzoquinone] | 78.3 | 96.5 | 81.9 | –
22 | CCCCCCCCCCCC1=C(OC(=O)c2cccc(Cl)c2)C(=O)C=C(OC(=O)c2cccc(Cl)c2)C1=O [Structure #7, 2,5-bis-(3-chlorophenylcarbonyloxy)-3-undecyl-1,4-benzoquinone] | 100 | 100 | 16.7 | –
23 | CCCCCCCCCCCC1=C(OC(=O)c2ccccc2Cl)C(=O)C=C(OC(=O)c2ccccc2Cl)C1=O [Structure #8, 2,5-bis-(2-chlorophenylcarbonyloxy)-3-undecyl-1,4-benzoquinone] | 100 | 100 | 20.6 | –
